From paper PMC6222898, “Cinnamoyl-Oxaborole Amides: Synthesis and Their in Vitro Biological Activity” (Molecules : A Journal of Synthetic Chemistry and Natural …, 2018)
Values after ≈ are worked out from the molar mass of the structure shown. Read-outs that look alike come from different tables or passages of the source.

Tests used:
[1] = system: Trypanosoma brucei brucei 427 trypomastigotes; settings: cited from earlier work
Dd2 = system: Dd2; parameters: method as in PMID 11310613; settings: Figure 2; cited from earlier work
[2] = system: Mycobacterium tuberculosis H37Rv; assay: In vitro antimycobacterial broth microdilution assay; format: cell-based; settings: concentration inhibiting mycobacterial growth by 99%
[3] = system: Trypanosoma brucei brucei 427 trypomastigotes; assay: In vitro antitrypanosomal assay (resazurin viability); format: cell-based; settings: T. b. brucei 427, 24 h incubation
Method: Trypanosoma brucei brucei 427 trypomastigotes were cultured in Iscove’sss Modified Dulbecco’s medium (IMDM, Lonza, Basel Switzerland) supplemented with 10% fetal calf serum, HMI-9 supplement, hypoxanthine, and penicillin/streptomycin at 37 °C in a 5% CO2 incubator. […] Reduction of resazurin to resorufin by viable parasites was assessed by fluorescence readings (excitation 560 nm, emission 590 nm) in a Spectramax M3 plate reader (Molecular Devices, San Jose, CA, USA). Fluorescence readings were converted to % parasite viability relative to the average readings obtained from untreated control wells. IC50 values were determined by plotting % viability vs. log[compound] and performing non-linear regression using GraphPad Prism (v. 5.02) software.

[4] = system: Trichomonas vaginalis G3 strain; assay: In vitro antitrichomonal assay (hemocytometer counts); format: cell-based; settings: 24 h, read-out: IC50 T. vaginalis
[5] = In vitro cytotoxicity assay (resazurin); format: cell-based; settings: human, HeLa cells; 20 μM compound; 48 h exposure, 24 h
Method: HeLa cells (Cellonex, Johannesburg, South Africa) seeded in 96-well plates were incubated with 20 μM test compounds for 24 h and cell viability assessed using a resazurin fluorescence assay as previously described.

| Structure (SMILES) | IC50 antitrypanosomal ([1]; T. b. brucei, footnote a: IC50 in μg/mL) | IC50 antitrypanosomal ([1]; T. b. brucei S427, footnote b: IC50 in μg/mL) | IC50 (Dd2) | MIC99 [2] | IC50 [3] | IC50 [4] | viability at 48 h, 20 µM [5] | melting point |
| --- | --- | --- | --- | --- | --- | --- | --- | --- |
| CC1(C)OB(O)c2cc(NC(=O)c3ccc(F)cc3C(F)(F)F)ccc21 [Compound 1, SCYX-7158] | 0.292 ± 0.019 ^a μg/mL |  |  |  |  |  |  |  |
| O=C(CCc1ccccc1)Nc1ccc2c(c1)B(O)OC2 [Compound 2] |  | 0.14 ^b μg/mL |  |  |  |  |  |  |
| Cc1ccc(CC(=O)Nc2ccc(NC(=O)/C=C/c3ccc(OCc4ccccc4)cc3)cc2C(=O)c2ccccc2)cc1 [Compound 4, 2,5-bisacylaminobenzonephone] |  |  | 650 nM |  |  |  |  |  |
| O=C(/C=C/c1ccccc1)Nc1ccc2c(c1)B(O)OC2 [Compound 5a, (E)-N-(1-Hydroxy-1,3-dihydrobenzo[c][1,2]oxaborol-6-yl)cinnamamide] |  |  |  | 61.8 µM (≈ 17.2 µg/mL) | 130 ± 20 nM | 15300 ± 330 nM | 108 ± 5.35% | 182 to 184 °C |
| O=C(/C=C/c1cccc([N+](=O)[O-])c1)Nc1ccc2c(c1)B(O)OC2 [Compound 5b, (E)-N-(1-Hydroxy-1,3-dihydrobenzo[c][1,2]oxaborol-6-yl)-3-(3-nitrophenyl)acrylamide] |  |  |  | 107 µM (≈ 34.7 µg/mL) | 130 ± 10 nM | 41700 ± 230 nM | 87 ± 1.59% | 176 to 178 °C |
| O=C(/C=C/c1ccc([N+](=O)[O-])cc1)Nc1ccc2c(c1)B(O)OC2 [Compound 5c, (E)-N-(1-Hydroxy-1,3-dihydrobenzo[c][1,2]oxaborol-6-yl)-3-(4-nitrophenyl)acrylamide] |  |  |  | 26.5 µM (≈ 8.59 µg/mL) | 920 ± 40 nM | 10200 ± 560 nM | 94.3 ± 28.8% | 176 to 180 °C |
| O=C(/C=C/c1ccc(Br)cc1)Nc1ccc2c(c1)B(O)OC2 [Compound 5d, (E)-3-(4-Bromophenyl)-N-(1-hydroxy-1,3-dihydrobenzo[c][1,2]oxaborol-6-yl)acrylamide] |  |  |  | 10.7 µM (≈ 3.83 µg/mL) | 470 ± 40 nM | 12600 ± 280 nM | 89.9 ± 5.12% | 206 to 210 °C |
| COc1ccc(/C=C/C(=O)Nc2ccc3c(c2)B(O)OC3)cc1 [Compound 5e, (E)-N-(1-Hydroxy-1,3-dihydrobenzo[c][1,2]oxaborol-6-yl)-3-(4-methoxyphenyl)acrylamide] |  |  |  | 18.7 µM (≈ 5.78 µg/mL) | 660 ± 30 nM | 11700 ± 280 nM | 102 ± 2.34% | 190 to 192 °C |
| COc1ccc(/C=C/C(=O)Nc2ccc3c(c2)B(O)OC3)cc1OC [Compound 5f, (E)-3-(3,4-Dimethoxyphenyl)-N-(1-hydroxy-1,3-dihydrobenzo[c][1,2]oxaborol-6-yl)acrylamide] |  |  |  |  | 8710 ± 650 nM | > 50000 nM | 109.9 ± 0.84% | 188 to 190 °C |
| O=C(/C=C/c1ccc2c(c1)OCO2)Nc1ccc2c(c1)B(O)OC2 [Compound 5g, (E)-3-(Benzo[d][1,3]-6-dioxol-5-yl)-N-(1-hydroxy-1,3-dihydrobenzo[c][1,2]oxaborol-6-yl)acrylamide] |  |  |  | 40.7 µM (≈ 13.2 µg/mL) | 86 ± 2 nM | 22800 ± 1020 nM | 132 ± 26.6% | 145 to 148 °C |
| CC[C@H]1CN2CCc3cc(OC)c(OC)cc3[C@@H]2C[C@@H]1C[C@H]1NCCc2cc(OC)c(OC)cc21 [EM, emetine, reference compound] |  |  |  |  |  |  | 3.19% |  |
| Cc1ncc([N+](=O)[O-])n1CCO [ME, metronidazole, reference compound] |  |  |  |  |  | 530 nM |  |  |
| N=C(N)c1ccc(OCCCCCOc2ccc(C(=N)N)cc2)cc1 [PE, pentamidine, reference compound] |  |  |  |  | 1.2 ± 0.1 nM |  |  |  |
| CO[C@H]1/C=C/O[C@@]2(C)Oc3c(C)c(O)c4c(O)c(c(/C=N/N5CCN(C)CC5)c(O)c4c3C2=O)NC(=O)/C(C)=C\C=C\[C@H](C)[C@H](O)[C@@H](C)[C@@H](O)[C@@H](C)[C@H](OC(C)=O)[C@@H]1C [RE, rifampicin, reference compound] |  |  |  | 0.003 µM (≈ 0.00247 µg/mL) |  |  |  |  |
